Test results: the NIST ThermoML archive (doi:10.1021/je800012v)
Numbers after ± are expanded uncertainties.

Conditions: Liquid

CCCCCl [1-chlorobutane]
mass density [kg/m3]
Conditions | 100 kPa | 2500 kPa | 5000 kPa | 10000 kPa | 15000 kPa | 20000 kPa | 25000 kPa | 30000 kPa | 35000 kPa
283.15 K | 897.21 ± 0.17 | 899.51 ± 0.19 | 901.82 ± 0.2 | 906.3 ± 0.24 | 910.57 ± 0.26 | 914.69 ± 0.29 | 918.63 ± 0.31 | 922.33 ± 0.34 | 926.05 ± 0.36
293.15 K | 886.18 ± 0.18 | 888.63 ± 0.2 | 891.13 ± 0.21 | 895.89 ± 0.25 | – | 904.73 ± 0.31 | 908.9 ± 0.34 | 912.88 ± 0.36 | 916.77 ± 0.38
298.15 K | 880.63 ± 0.18 | 883.17 ± 0.2 | 885.72 ± 0.22 | 890.65 ± 0.25 | 895.36 ± 0.29 | 899.79 ± 0.32 | 904.09 ± 0.35 | 908.22 ± 0.37 | 912.17 ± 0.4
303.15 K | 874.92 ± 0.18 | 877.59 ± 0.21 | 880.23 ± 0.22 | 885.43 ± 0.26 | 890.24 ± 0.29 | 894.84 ± 0.33 | 899.24 ± 0.36 | 903.46 ± 0.39 | 907.47 ± 0.41
313.15 K | 863.82 ± 0.19 | 866.65 ± 0.21 | 869.49 ± 0.23 | 874.93 ± 0.27 | 880.07 ± 0.31 | 884.94 ± 0.35 | 889.61 ± 0.38 | 894.04 ± 0.41 | 898.33 ± 0.44
323.15 K | 852.43 ± 0.2 | 855.47 ± 0.22 | 858.54 ± 0.24 | 864.35 ± 0.29 | 869.85 ± 0.33 | 875.03 ± 0.37 | 879.94 ± 0.4 | 884.62 ± 0.43 | 889.1 ± 0.46
333.15 K | 840.79 ± 0.21 | 844.06 ± 0.23 | 847.37 ± 0.25 | 853.61 ± 0.3 | 859.47 ± 0.34 | 864.97 ± 0.38 | 870.17 ± 0.42 | 875.12 ± 0.46 | 879.82 ± 0.49

CCCCCC [hexane]
mass density [kg/m3]
Conditions | 100 kPa | 2500 kPa | 5000 kPa | 10000 kPa | 15000 kPa | 20000 kPa | 25000 kPa | 30000 kPa | 35000 kPa
283.15 K | 668.07 ± 0.32 | 670.36 ± 0.38 | 672.69 ± 0.44 | 677.06 ± 0.56 | 681.19 ± 0.68 | 685.08 ± 0.8 | 688.82 ± 0.91 | 692.35 ± 1 | 695.65 ± 1.1
293.15 K | 659.18 ± 0.33 | 661.67 ± 0.39 | 664.17 ± 0.45 | 668.87 ± 0.58 | 673.27 ± 0.7 | 677.4 ± 0.81 | 681.33 ± 0.93 | 685.07 ± 1 | 688.63 ± 1.1
298.15 K | 654.61 ± 0.33 | 657.21 ± 0.4 | 659.81 ± 0.46 | 664.66 ± 0.58 | 669.24 ± 0.7 | 673.51 ± 0.82 | 677.56 ± 0.94 | 681.4 ± 1.1 | 685.02 ± 1.2
303.15 K | 649.97 ± 0.34 | 652.7 ± 0.4 | 655.36 ± 0.46 | 660.53 ± 0.59 | 665.23 ± 0.71 | 669.63 ± 0.83 | 673.81 ± 0.95 | 677.77 ± 1.1 | 681.45 ± 1.2
313.15 K | 640.82 ± 0.35 | 643.76 ± 0.41 | 646.69 ± 0.47 | 652.13 ± 0.6 | 657.16 ± 0.73 | 661.86 ± 0.85 | 666.28 ± 0.97 | 670.44 ± 1.1 | 674.41 ± 1.2
323.15 K | 631.41 ± 0.35 | 634.61 ± 0.42 | 637.8 ± 0.48 | 643.69 ± 0.62 | 649.12 ± 0.74 | 654.14 ± 0.87 | 658.84 ± 0.99 | 663.23 ± 1.1 | 667.4 ± 1.2
333.15 K | 621.8 ± 0.36 | 625.32 ± 0.43 | 628.77 ± 0.5 | 635.13 ± 0.63 | 640.94 ± 0.76 | 646.27 ± 0.89 | 651.23 ± 1 | 655.89 ± 1.1 | 660.3 ± 1.2
